US8722849B2, “Polypeptides” (Novo Nordisk A/S, priority 2011, dated 2014)
Read-outs that look alike come from different tables or passages of the source. Starred links: 1 amine or outer side, 2 acyl side, 3 side chain; linkers in the order of their positions; H or OH if unused. Positions of bridges follow the written chain, without caps; N, C: chain ends. Residues, ends and D or L forms follow the SMILES beside them. *: point of attachment. C20 diacid = O=C(O)CCCCCCCCCCCCCCCCCCC(=O)*; γGlu = O=C(O)[C@H](CCC(=O)[*:2])N[*:1]

Experiments:
[1] = target: T1, human amylin receptor (amylin 3(a) receptor: human calcitonin receptor + RAMP-3) (Homo sapiens, UniProt O60896+P30988); test: Assay (II)a functional CRE-luciferase assay, human amylin receptor; format: cell-based
T1 construct: expressed in transfected cells; host or cells: BHK570
T1 sequence (P30988 25-474): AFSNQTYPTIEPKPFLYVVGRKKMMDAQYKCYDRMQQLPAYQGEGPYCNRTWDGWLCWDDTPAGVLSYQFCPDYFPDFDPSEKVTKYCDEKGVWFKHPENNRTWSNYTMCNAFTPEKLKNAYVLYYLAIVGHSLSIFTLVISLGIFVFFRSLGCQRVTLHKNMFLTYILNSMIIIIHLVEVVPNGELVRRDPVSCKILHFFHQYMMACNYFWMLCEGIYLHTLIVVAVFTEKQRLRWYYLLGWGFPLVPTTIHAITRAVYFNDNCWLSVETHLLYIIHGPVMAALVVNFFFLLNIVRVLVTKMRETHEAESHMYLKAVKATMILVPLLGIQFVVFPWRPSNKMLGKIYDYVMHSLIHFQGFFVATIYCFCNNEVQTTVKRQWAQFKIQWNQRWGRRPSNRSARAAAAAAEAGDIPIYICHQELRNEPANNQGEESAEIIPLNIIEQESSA
T1 sequence (O60896 24-148 partner): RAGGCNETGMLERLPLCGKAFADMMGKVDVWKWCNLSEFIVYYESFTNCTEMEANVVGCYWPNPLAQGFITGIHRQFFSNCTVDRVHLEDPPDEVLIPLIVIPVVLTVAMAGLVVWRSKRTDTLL

[2] = target: T2, human calcitonin receptor (Homo sapiens, UniProt P30988); test: Assay (II)a functional CRE-luciferase assay, human calcitonin receptor; format: cell-based
T2 construct: expressed in transfected cells; host or cells: BHK570
T2 sequence (P30988 25-474): T1 sequence (P30988 25-474)

[3] = Assay (III) ThT fibrillation assay for physical stability; format: physicochemical
How it was run: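 Freshly prepared formulations, pH-adjusted, with 1 μM ThT; four or eight replicates incubated at 37 °C under 960 rpm orbital shaking. Fluorescence (ex 444/em 485 nm) read every 20 min; […]. Peptide concentration measured by RP-HPLC before and after the run.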

[4] = Assay (IV) determination of solubility; format: physicochemical
How it was run: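 Polypeptide in water (~500 nmol/ml) mixed 1:1 with 100 mM glycylglycine (pH 3.0–5.0) or bistrispropane (pH 6.0–8.0) buffers. Held 18 hours at room temperature, then centrifuged. Polypeptide remaining in solution quantified by HPLC.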

[5] = bistrispropane buffer, pH 6, pH 6.0, read-out: Solubility pH 6.0
[6] = bistrispropane buffer, pH 6.5, pH 6.5, read-out: Solubility pH 6.5
[7] = bistrispropane buffer, pH 7, pH 7.0, read-out: Solubility pH 7.0
[8] = bistrispropane buffer, pH 7.5, pH 7.5, read-out: Solubility pH 7.5
[9] = bistrispropane buffer, pH 8, pH 8.0, read-out: Solubility pH 8.0
[10] = glycylglycine buffer, pH 3, pH 3.0, read-out: Solubility pH 3.0
[11] = glycylglycine buffer, pH 4, pH 4.0, read-out: Solubility pH 4.0
[12] = glycylglycine buffer, pH 5, pH 5.0, read-out: Solubility pH 5.0
[13] = Table 2, BHK amylin 3(a)-receptor/CRE-luc cells
[14] = Table 7, human calcitonin (CTa) receptor
[15] = bistrispropane buffer, pH 7, pH 7.0, 18 hours at room temperature, Table 3, read-out: Solubility pH 7.0
[16] = glycylglycine buffer, pH 4, pH 4.0, 18 hours at room temperature, Table 2, read-out: Solubility pH 4.0

Row | SMILES | ThT pH 4.0 lag time (h) ([3]; ThT fibrillation assay) | solubility at 18 h [4, 5] [µM] | solubility at 18 h [4, 6] [µM] | solubility at 18 h [4, 7] [µM] | solubility at 18 h [4, 8] [µM] | solubility at 18 h [4, 9] [µM] | solubility at 18 h [4, 10] [µM] | solubility at 18 h [4, 11] [µM] | solubility at 18 h [4, 12] [µM] | EC50 [1, 13] [nM] | EC50 [2, 14] [nM] | solubility at 18 h [4, 15] [µM] | solubility at 18 h [4, 16] [µM] | also measured
1 | CC[C@H](C)[C@H](NC(=O)[C@@H]1CCCN1C(=O)CNC(=O)[C@H](Cc1ccccc1)NC(=O)[C@H](CC(N)=O)NC(=O)[C@H](CC(N)=O)NC(=O)[C@H](CO)NC(=O)[C@H](CO)NC(=O)[C@H](Cc1c[nH]cn1)NC(=O)[C@@H](NC(=O)[C@H](CC(C)C)NC(=O)[C@H](Cc1ccccc1)NC(=O)[C@H](CC(N)=O)NC(=O)[C@H](C)NC(=O)[C@H](CC(C)C)NC(=O)[C@H](CCCNC(=N)N)NC(=O)[C@H](CCC(N)=O)NC(=O)[C@@H](NC(=O)[C@H](C)NC(=O)[C@@H]1CSSC[C@H](NC(=O)[C@H](CCC(=O)O)NC(=O)[C@H](CCCNC(=N)N)NC(=O)[C@H](CCC(=O)O)NC(=O)CC[C@H](NC(=O)CCCCCCCCCCCCCCCCCCC(=O)O)C(=O)O)C(=O)N[C@@H](CC(N)=O)C(=O)N[C@@H]([C@@H](C)O)C(=O)N[C@@H](C)C(=O)N[C@@H]([C@@H](C)O)C(=O)N1)[C@@H](C)O)C(C)C)C(=O)N[C@@H](CC(C)C)C(=O)N1CCC[C@H]1C(=O)N1CCC[C@H]1C(=O)N[C@H](C(=O)N[C@@H](CC(N)=O)C(=O)N[C@H](C(=O)NCC(=O)N[C@@H](CO)C(=O)N[C@@H](CC(N)=O)C(=O)N[C@H](C(=O)N1CCC[C@H]1C(N)=O)[C@@H](C)O)C(C)C)[C@@H](C)O [Example 122, N-alpha-[(S)-4-Carboxy-4-(19-carboxynonadecanoylamino)butyryl]-Glu-Arg-[Glu1,Pro37]-pramlintide] ({C20 diacid-γGlu}-ERECNTATCATQRLANFLVHSSNNFGPILPPTNVGSNTP-NH2; disulfide 4-9 (inferred); C-terminus assumed) | 0.7 | > 200 | > 200 | > 200 | > 200 | > 200 | > 200 | > 200 | > 200 | – | – | – | – | EC50 ([1]; Table 6, human amylin receptor): 0.063 nM; EC50 ([2]; Table 11, read-out: CTa receptor human EC50): 0.061 nM
2 | CC[C@H](C)[C@H](NC(=O)[C@@H]1CCCN1C(=O)CNC(=O)[C@H](Cc1ccccc1)NC(=O)[C@H](CC(N)=O)NC(=O)[C@H](CC(N)=O)NC(=O)[C@H](CO)NC(=O)[C@H](CO)NC(=O)[C@H](Cc1c[nH]cn1)NC(=O)[C@H](Cc1c[nH]cn1)NC(=O)[C@H](CC(C)C)NC(=O)[C@H](Cc1ccccc1)NC(=O)[C@H](CCC(=O)O)NC(=O)[C@H](C)NC(=O)[C@H](CC(C)C)NC(=O)[C@H](CCCNC(=N)N)NC(=O)[C@H](CCC(N)=O)NC(=O)[C@@H](NC(=O)[C@H](C)NC(=O)[C@@H]1CSSC[C@H](NC(=O)[C@H](CCC(=O)O)NC(=O)[C@H](CCCNC(=N)N)NC(=O)[C@H](CCC(=O)O)NC(=O)CC[C@H](NC(=O)CCCCCCCCCCCCCCCCCCC(=O)O)C(=O)O)C(=O)N[C@@H](CC(N)=O)C(=O)N[C@@H]([C@@H](C)O)C(=O)N[C@@H](C)C(=O)N[C@@H]([C@@H](C)O)C(=O)N1)[C@@H](C)O)C(=O)N[C@@H](CC(C)C)C(=O)N1CCC[C@H]1C(=O)N1CCC[C@H]1C(=O)N[C@H](C(=O)N[C@@H](CC(N)=O)C(=O)N[C@H](C(=O)NCC(=O)N[C@@H](CO)C(=O)N[C@@H](CC(N)=O)C(=O)N[C@H](C(=O)N1CCC[C@H]1C(N)=O)[C@@H](C)O)C(C)C)[C@@H](C)O [Example 123, N-alpha-[(S)-4-Carboxy-4-(19-carboxynonadecanoylamino)butyryl]-Glu-Arg-[Glu1,Glu14,His17,Pro37]-pramlintide] ({C20 diacid-γGlu}-ERECNTATCATQRLAEFLHHSSNNFGPILPPTNVGSNTP-NH2; disulfide 4-9 (inferred)) | 8.7 | > 200 | > 200 | > 200 | > 200 | > 200 | > 200 | > 200 | > 200 | 0.136 | 0.378 | > 200 | > 200 | –
3 | CC[C@H](C)[C@H](NC(=O)[C@@H]1CCCN1C(=O)CNC(=O)[C@H](Cc1ccccc1)NC(=O)[C@H](CC(N)=O)NC(=O)[C@H](CC(N)=O)NC(=O)[C@H](CO)NC(=O)[C@H](CO)NC(=O)[C@H](Cc1c[nH]cn1)NC(=O)[C@H](CCCNC(=N)N)NC(=O)[C@H](CC(C)C)NC(=O)[C@H](Cc1ccccc1)NC(=O)[C@H](CCC(=O)O)NC(=O)[C@H](C)NC(=O)[C@H](CC(C)C)NC(=O)[C@H](CCCNC(=N)N)NC(=O)[C@H](CCC(N)=O)NC(=O)[C@@H](NC(=O)[C@H](C)NC(=O)[C@@H]1CSSC[C@H](NC(=O)[C@H](CCC(=O)O)NC(=O)[C@H](CCCNC(=N)N)NC(=O)[C@H](CCC(=O)O)NC(=O)CC[C@H](NC(=O)CCCCCCCCCCCCCCCCCCC(=O)O)C(=O)O)C(=O)N[C@@H](CC(N)=O)C(=O)N[C@@H]([C@@H](C)O)C(=O)N[C@@H](C)C(=O)N[C@@H]([C@@H](C)O)C(=O)N1)[C@@H](C)O)C(=O)N[C@@H](CC(C)C)C(=O)N1CCC[C@H]1C(=O)N1CCC[C@H]1C(=O)N[C@H](C(=O)N[C@@H](CC(N)=O)C(=O)N[C@H](C(=O)NCC(=O)N[C@@H](CO)C(=O)N[C@@H](CC(N)=O)C(=O)N[C@H](C(=O)N1CCC[C@H]1C(N)=O)[C@@H](C)O)C(C)C)[C@@H](C)O [Example 124, N-alpha-[(S)-4-Carboxy-4-(19-carboxynonadecanoylamino)butyryl]-Glu-Arg-[Glu1,Glu14,Arg17,Pro37]-pramlintide] ({C20 diacid-γGlu}-ERECNTATCATQRLAEFLRHSSNNFGPILPPTNVGSNTP-NH2; disulfide 4-9 (inferred)) | >45 | > 200 | > 200 | > 200 | > 200 | > 200 | > 200 | > 200 | > 200 | 0.0895 | 0.367 | > 200 | > 200 | ThT pH 4.0 lag time ([3]; Table 8): >45 h; ThT pH 4.0 lag time ([3]; Table 9): >45 h; ThT pH 4.0 lag time ([3]; ThT fibrillation assay): >45 h; solubility at 18 h ([4]; bistrispropane buffer, pH 7, pH 7.0, Table 8, read-out: Solubility pH 7.0): > 200 µM; solubility at 18 h ([4]; bistrispropane buffer, pH 7, pH 7.0, Table 9, read-out: Solubility pH 7.0): > 200 µM; solubility at 18 h ([4]; bistrispropane buffer, pH 7.5, pH 7.5, Table 9, read-out: Solubility pH 7.5): > 200 µM
4 | CC[C@H](C)[C@H](NC(=O)[C@@H]1CCCN1C(=O)CNC(=O)[C@H](Cc1ccccc1)NC(=O)[C@H](CC(N)=O)NC(=O)[C@H](CC(N)=O)NC(=O)[C@H](CO)NC(=O)[C@H](CO)NC(=O)[C@H](Cc1c[nH]cn1)NC(=O)[C@H](Cc1c[nH]cn1)NC(=O)[C@H](CC(C)C)NC(=O)[C@H](Cc1ccccc1)NC(=O)[C@H](CCC(=O)O)NC(=O)[C@H](C)NC(=O)[C@H](CC(C)C)NC(=O)[C@H](CCCNC(=N)N)NC(=O)[C@H](CCC(N)=O)NC(=O)[C@@H](NC(=O)[C@H](C)NC(=O)[C@@H]1CSSC[C@H](NC(=O)[C@H](CCC(=O)O)NC(=O)[C@H](CCCNC(=N)N)NC(=O)[C@H](CCC(=O)O)NC(=O)[C@H](CCC(=O)O)NC(=O)CCCCCCCCCCCCCCCCCCC(=O)O)C(=O)N[C@@H](CC(N)=O)C(=O)N[C@@H]([C@@H](C)O)C(=O)N[C@@H](C)C(=O)N[C@@H]([C@@H](C)O)C(=O)N1)[C@@H](C)O)C(=O)N[C@@H](CC(C)C)C(=O)N1CCC[C@H]1C(=O)N1CCC[C@H]1C(=O)N[C@H](C(=O)N[C@@H](CC(N)=O)C(=O)N[C@H](C(=O)NCC(=O)N[C@@H](CO)C(=O)N[C@@H](CC(N)=O)C(=O)N[C@H](C(=O)N1CCC[C@H]1C(N)=O)[C@@H](C)O)C(C)C)[C@@H](C)O [Example 125, N-alpha-(19-carboxynonadecanoyl)-Glu-Glu-Arg-[Glu1,Glu14,His17,Pro37]-pramlintide] ({C20 diacid}-EERECNTATCATQRLAEFLHHSSNNFGPILPPTNVGSNTP-NH2; disulfide 5-10 (inferred); C-terminus assumed) | 19 | > 200 | > 200 | > 200 | > 200 | > 200 | > 200 | > 200 | > 200 | 0.288 | 0.443 | > 200 | > 200 | –
